Reference: PMC6764161 (ACS Central Science, 2019)

Tests used:
[1] = target: T1, soluble epoxide hydrolase (sEH) (Rattus norvegicus, UniProt P80299); test: In vivo displacement assay in rat; conditions: TCU 0.1 mg/kg, second compound 3 mg/kg, oral gavage
T1 sequence (P80299 1-554): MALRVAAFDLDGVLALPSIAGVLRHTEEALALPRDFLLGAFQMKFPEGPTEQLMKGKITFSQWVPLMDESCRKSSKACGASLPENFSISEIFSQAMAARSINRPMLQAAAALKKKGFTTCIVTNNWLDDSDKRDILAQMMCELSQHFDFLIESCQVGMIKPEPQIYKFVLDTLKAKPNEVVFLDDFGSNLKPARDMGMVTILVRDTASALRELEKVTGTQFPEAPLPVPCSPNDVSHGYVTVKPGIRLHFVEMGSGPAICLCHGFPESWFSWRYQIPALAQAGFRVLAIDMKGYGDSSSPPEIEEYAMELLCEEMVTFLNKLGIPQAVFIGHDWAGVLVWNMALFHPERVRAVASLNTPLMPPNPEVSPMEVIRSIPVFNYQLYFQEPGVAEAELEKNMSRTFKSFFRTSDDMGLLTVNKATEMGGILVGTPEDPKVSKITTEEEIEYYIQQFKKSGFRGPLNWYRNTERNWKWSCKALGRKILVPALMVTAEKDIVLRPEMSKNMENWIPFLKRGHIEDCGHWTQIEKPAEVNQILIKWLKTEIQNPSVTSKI

[2] = tested on: rat sEH; test: IC50 determination for sEH inhibitors; format: biochemical; conditions: potency ratio on rat sEH, Table S1
[3] = patients, cited from earlier work

SMILES | displacement of sEH-bound TCU by second compound at 168 h [1] | fold less potent than TIPU [2] | time until which effect is maintained ([3]; beyond 24 h) [days] | time within which majority is cleared from dosing [3] [h]
CC[C@H](C)C(=O)N1CCC(NC(=O)Nc2c(F)cccc2F)CC1 [DFPU, (S)-1-(2,6-difluorophenyl)-3-(1-(2-methylbutanoyl)piperidin-4-yl)urea] | could not be displaced | ~16 666 fold | – | –
COC(=O)[C@H](c1ccccc1Cl)N1CCc2sccc2C1 [clopidogrel] | – | – | 7 | ≤ 6
